Test results from patent publication US20130051651A1, “QUANTITATIVE IMAGE ANALYSIS FOR WOUND HEALING ASSAY” (PURDUE RESEARCH FOUNDATION, priority 2010, published 2013).

Tested on: MCF7 cells
Assay: wound healing assay analysed with the quantitative image analysis algorithm
Format: cell-based
Text: The wound healing assay, or “scratch” assay, is a traditional method used to study cell proliferation and migration. […] The cultures are then imaged over time using bright field or fluorescence microscopy to monitor the growth and migration of cells into the wound as it is healing.
Illustrative embodiments of the quantitative image analysis algorithm 100 have been tested multiple times and have provided robust and dependable wound healing assay analysis. By way of example, the […] 102 of several wound healing assays were measured at 24 hour time points (up to 96 hours). […] In this experiment, the algorithm took 90 minutes to process five time points for each wound healing assay in a 96 well plate (i.e., a total of 480 bright point images 102 being analyzed). […]
Furthermore, the data produced by the quantitative image analysis algorithm 100 matches traditional wound healing assay data. […]

neuregulin 2β
percentage of wound healing using the wound area calculated by the algorithm (MCF7 cells treated with varying doses, different time points, dose response 48 hours after wound creation (FIGS. 3A, 3B)): dose-dependent increase in healing
healing curve (speed of wound healing) (MCF7 cells, 4 different doses, treated versus untreated cells over time (FIG. 3A)): treated cells healed faster
